Experimental data taken from patent US10308631B2, “Selective anti-cancer compounds” (NATIONAL UNIVERSITY OF SINGAPORE, priority 2015, dated 2019).

Columns and labels:
[1] = tested on: HCT-15 human colon adenocarcinoma xenografts; assay: Tumour xenograft efficacy, tumour volume; assay type: in vivo, mice; conditions: HCT15 xenografts; PO or IP twice a day, 12 days; vs vehicle
Procedure: (§1) A, B: is a graphical representation of tumour volumes estimated periodically as indicated. Mice bearing established tumour xenografts using HCT15 or MDA-MB-231 cells were treated orally (PO) or intraperitoneally (IP) twice a day with the indicated doses of Compound 1 or Compound 16 for 12 or 15 days. Paclitaxel (PTX) was given intravenously at dose of 40 mg/kg, 3 times every 4 days. Error bars show ±S.D. from mean tumour volumes obtained from 6 mice. Student's t-test was performed to determine the statistical significance (*=p<0.005). C: is a bar graph showing quantification of cells (n>100 per condition) with misaligned chromosomes and multipolar mitotic-spindles. […] tumour sections treated with Compound 16 (80 mg/kg) or control vehicle for 12 days were stained with anti-β-tubulin antibodies and DAPI. The percentage of cells with misaligned chromosomes and multipolar mitotic-spindles was quantified and plotted with mean values±S.D.
Mice bearing established tumor xenografts using HCT15 or MDA-MB-231 cells were treated orally (PO) or intraperitoneally (IP) twice a day with the indicated doses of Compound 1 or its derivative Compound 16 (b5) for 12 or 15 days, respectively. For comparison, paclitaxel (PTX) was given intravenously to mice bearing established tumour xenografts using HCT15 at dose of 40 mg/kg, 3 times every 4 days.

[2] = tested on: HCT-15 tumour sections; assay: Immunofluorescence analysis of xenograft tumour sections; assay type: in vivo, mice; conditions: 80 mg/kg, 12 days, vs control vehicle
Procedure: as §1
To confirm the antimitotic efficacy of Compound 16 (b5) in vivo, immunofluorescence analysis of HCT-15 tumor sections treated with Compound 16 (80 mg/kg) or control vehicle for 12 days were stained with anti-β-tubulin antibodies and DAPI.

[3] = tested on: non-transformed normal BJ cells; assay: BrdU incorporation and FACS analysis (cell cycle arrest); assay type: cell-based, human
Procedure: A: is output from a FACS analysis of isogenic-non-transformed, without (panels a-c) (WT) or with (panels d-f) shRNA-mediated knockdown of p53 (p53KD), and oncogene-transformed BJ cells (panels g-i), each treated with 0, 5 or 2.5 μM Compound 1 (a131) for 24 h. Cells were doubly stained with PI (horizontal axis) and BrdU (vertical axis). The BrdU-positive population in panels a-c are indicated as arrows. B: is a diagrammatic representation of an immunoblot analysis showing isogenic non-transformed (normal) and oncogene-transformed BJ cells (transformed) treated with Compound 1 (a131) at 0, 2.5 or 5 μM for 24 h or 48 h. Cells were harvested and total lysates were analysed by detecting p53 and p21. Antibodies raised against β-actin were used as an internal loading control. C and D are histograms showing the percentage of bromodeoxyuracil (BrdU)-positive non-transformed (normal) BJ cells. C: Cells were treated with Group 1 Compound 1 (a131) at 2.5 and 5 μM, Compound 23 (b36) at 2.5 and 5 μM, and Compound 21 (b35) at 5 μM, and Group 2 Compound 25 (a166) at 2.5 and 5 μM, for 24 h. Cells were doubly stained with propidium iodide (PI) and BrdU, and subjected to FACS analysis. The BrdU-positive population are plotted as bars. D: Cells were treated with Group 1 Compound 1 (a131), Compound 16 (b5), and Compound 17 (b9); Group 2 Compound 13 (b12), Compound 12 (b16) and Compound 25 (a166), and Group 3 Compound 3 (a159) at 5 μM for 48 h. The percentage of cells with BrdU positive population, in comparison with DMSO control vehicle, is shown with mean values±S.D. (n=3).
Isogenic non-transformed and oncogene-transformed BJ cells (cultured as in Biology Example 3) were treated with Compound 1 at final concentrations of 2.5 and 5 μM for 24 h. The treated cells were then treated with 30 μM final concentration of 5-bromo-2′-deoxyuridine (BrdU, SIGMA) for 1 h to detect DNA synthesis as a marker for cell proliferation. Subsequently, the cells were fixed in EtOH at 4° C. overnight and permeabilized with 2N HCl/0.5% Triton X-100 for 30 min. The cells were then treated with 0.1M sodium tetraborate for 2 min and stained with anti-BrdU antibody (Invitrogen, Cat#B35129) for 60 min, followed by a 30 min treatment with 20 μg/mL of propidium iodide (PI) and 10 μg/mL RNaseA.
Furthermore, the abilities of additional five (5) Compounds to arrest cells at the stage of G1/S phase of the cell cycle were evaluated. […] The abilities of these Compounds to arrest cells at the stage of G1/S phase of the cell cycle were then measured by using BrdU incorporation assay and FACS analysis. The percentage of cells with BrdU positive population in comparison with DMSO control vehicle was determined and plotted with mean values±S.D. (n=3).

[4] = tested on: HeLa cells (mitotic spindles, β-tubulin/DAPI); assay: Immunofluorescence analysis of mitotic spindles and chromosomes; assay type: cell-based, human; conditions: 6 h, Compound 1 2.5 μM, CQ 15 or 25 μM
Procedure: HeLa cells, treated with Compound 1 (a131) at 2.5 μM (FIG. 3b), chloroquine (CQ) at 15 μM (FIG. 3c) or 25 μM (FIG. 3d), or DMSO (FIG. 3a) for 6 h, were fixed in methanol and subjected to immunofluorescence analysis using antibodies against β-tubulin to visualize proper formation of mitotic spindles. The condensed mitotic chromosomes were visualized by counterstaining with DAPI. Only Compound 1 (a131)-treated HeLa cells arrested in mitosis with misaligned chromosomes and disorganized spindles (FIG. 3b). The bars in FIGS. 3a-d represent 5 μm in length.
To confirm the inhibitory mitotic progression ability, HeLa cervical cancer cells as cultured above were treated with Compound 1 (2.5 μM, DMSO), CQ (15 or 25 μM, DMSO) or DMSO for 6 h. The treated cells were fixed in methanol and subjected to immunofluorescence analysis using antibodies against β-tubulin (Abcam, Cat#ab52623) to visualize proper formation of mitotic spindles. The condensed mitotic chromosomes were visualized by counterstaining with DAPI.

Row | Compound | anti-tumour effect (tumour volume) [1] | cancer cells with misaligned chromosomes and multipolar mitotic-spindles [2] | arrest at the G1/S phase of the cell cycle (BrdU incorporation) ([3]; 5 μM, 48 h (FIG. 9D)) | mitotic arrest, chromosome alignment and mitotic spindles [4] | BrdU-positive cell population ([3]; 24 h, 2.5 and 5 μM (FIG. 9A, 9C))
1 | CN1CCN(CC(=O)n2cc(/C(C#N)=C/c3cccc4cnccc34)c3ccccc32)CC1 [Compound 16, (Z)-3-(isoquinolin-5-yl)-2-(1-(2-(4-methylpiperazin-1-yl)acetyl)-1H-indol-3-yl)acrylonitrile] | showed marked anti-tumour effects | significantly increased the number of cancer cells harbouring massively misaligned chromosomes with multipolar mitotic-spindles |  |  | 
2 | N#C/C(=C\c1cccc2ncccc12)c1c[nH]c2ccccc12 [Compound 3, (Z)-2-(1H-indol-3-yl)-3-(quinolin-5-yl)acrylonitrile] |  |  | failed to do so |  | 
3 | N#C/C(=C\c1cccc2cnccc12)c1c[nH]c2ccccc12 [Compound 1, (Z)-2-(1H-indol-3-yl)-3-(isoquinolin-5-yl)acrylonitrile] | showed marked anti-tumour effects |  |  | arrested in mitosis with massively misaligned chromosomes and disorganized mitotic spindles | markedly decreased the number of BrdU-positive non-transformed normal BJ cells
